Molecules are shown by their SMILES.

The values below come from a melting point compilation (Tetko et al.; mined from patent text by program, amines drawn as free bases though some values may be those of a salt).

With `CN(C1CC(C)(C)NC(C)(C)C1)C1CC(C)(C)NC(C)(C)C1`, the melting point is 51 to 53 °C.
In turn, `O=C(Nc1ccc(C(F)(F)F)cc1)NC1CCN(S(=O)(=O)c2ccccc2)CC1` showed a melting point of 248 to 252 °C.
With `Cc1nc(-c2cccc(Cn3ccc4nc(C(C)C)n(Cc5ccc6ccc(-c7noc(C)n7)cc6c5)c4c3=O)c2)no1` the figure was 108 to 109 °C.
`COc1cc(C(=O)c2ncc3ccc(C(N)=O)cn23)ccc1[N+](=O)[O-]`: the melting point was 289 °C.
Consider `CCCc1c(C#N)c(-c2ccc(C#N)cc2)c(C)n1Cc1cnc(Cl)c(CO)c1`, for which the melting point is 137 to 138 °C.
On to `CCOc1nc2cccc(C(=O)OC)c2n1Cc1ccc(-c2ccccc2C#N)cc1`, for which the melting point was 168 to 170 °C.
As to `Cc1cn(C2CC(O)C(CO[Si](C)(C)C(C)(C)C)O2)c(=O)[nH]c1=O` (stereo not given), the melting point fell in the range of 193 to 194 °C.
On to `CNS(=O)(=O)c1ccc(F)cc1`, for which the melting point fell in the range of 67 to 70 °C.
For `COc1ccc(C(=O)c2cccc(C(F)(F)F)c2)cc1` the value was 62.5 to 63.5 °C; for `O=C(NC1N=C(c2ccccc2F)c2ccccc2-n2cnnc21)c1cc2ccccc2[nH]1` (stereo not given), 291 °C.
`CC1(C)OC(c2ccc(S(C)(=O)=O)cc2)=C(Br)C1=O` gave a melting point of 196 °C.
The compound `O=C(O)/C=C/c1cnoc1-c1ccccc1` displayed a melting point of 197 to 199 °C.
`COc1ccc(C(=O)NCCc2ccc(-c3ccc(O)cc3)cc2)cc1OC` had a melting point of 170 °C.
As to `COc1ccc2c(CBr)c(F)ccc2c1C(F)(F)F`, the melting point fell in the range of 97 to 100 °C.
In turn, `CCCCc1nc(C#N)c(C#N)n1Cc1ccc(N)cc1` had a melting point of 99 to 104 °C.
`CC(C)CCc1c(-c2ccc(S(C)(=O)=O)cc2)cnn(-c2ccc(F)c(Cl)c2)c1=O` registered a melting point of 55 to 58 °C.
`Fc1ccc2[nH]c3c(c2c1)CN(CCCCc1ccncc1)CC3` yielded a melting point of 210 to 212 °C.
Compound `O=C(O)CCc1ccc([N+](=O)[O-])cc1` yielded a melting point of 162 to 164 °C.
`CC(=O)OC1CSC(Oc2cccnc2F)C(OC(C)=O)C1OC(C)=O` (stereo not given) showed a melting point of 160 °C.
For `CC(C)(C)OC(=O)NCC[C@H]1CC[C@H](COS(C)(=O)=O)CC1` the value was 83 to 84 °C; for `COc1cc(C)c(NS(C)(=O)=O)cc1C(=O)NCC1CCCO1` (stereo not given), 207 to 208 °C; for `O=C(NCc1cccnc1)c1ccc2n1Cc1ccccc1N(C(=O)Cc1ccc(Cl)cc1)C2`, 83 °C.
On to `Cn1cccc1C(=O)NCCCSc1ccncc1`, for which the melting point was in the range of 74 to 75 °C.
With `CC(=O)Nc1nc(N)nc(NC2CC2)n1` the figure was 190 to 195 °C; with `CCN(CC)c1ccc(C(=O)C#Cc2ccnc3ccccc23)cc1`, 163 to 165 °C.
In the case of `COC(=O)c1c(Cn2cncn2)nc2cc(OC)c(OC)cc2c1-c1ccc(OC)c(OC)c1`, the melting point was in the range of 218 to 220 °C.
Take `O=c1[nH]c2ccc(F)cc2n2ccnc12`: the melting point is greater than 300 °C.
For `CC(C)[C@H](NC(=O)OCc1ccccn1)C(=O)N[C@@H](Cc1ccccc1)[C@@H](O)C[C@H](Cc1ccccc1)NC(=O)OCc1cccnc1` the value was 169 to 171 °C; for `CC(=O)NNc1ccnc2c(NC(=O)c3c(Cl)cccc3Cl)cc(C)c(C)c12`, greater than 250 °C; for `COc1cc(Cc2cnc(N)nc2N)cc(OC)c1Cl`, 218 °C.
Compound `c1ccc(-c2cc(-c3ccc(C4CCCC4)cc3)sc2-c2ccccc2)cc1` showed a melting point of 150 °C.
`CC1CSC2=CC=NC3=CC=CC(c4ccccc4)C321` (stereo not given) yielded a melting point of 164 °C.
Turning to `O=C(c1cccnc1)N1CCC(c2ccccc2F)=N1`, the melting point fell in the range of 89 to 91 °C.
The compound `O=C(Cn1cnc2ccccc21)Nc1ccc(-n2nc(C3CC3)cc2C2CC2)cc1` had a melting point of 230 to 235 °C.
Take `COC(=O)C(C(=O)C(C)C)=C(N)c1ccc(F)cc1`: the melting point fell in the range of 85.8 to 86.6 °C.
Consider `CC(=O)N1CC2(CCN(C(=O)Nc3nnc(-c4ccccc4)s3)CC2)c2ccccc21`, for which the melting point stood at 260 °C.
Compound `COS(=O)c1cc(C(=O)CBr)ccc1C` (stereo not given) gave a melting point of 123 to 125 °C.
`CCCCc1nc2c(N)nc3ccc(OCC(=O)N(CCOC)CCOC)cc3c2n1C` came in with a melting point of 125 to 128 °C.
For `O=S(=O)(Nc1ccccc1Oc1ccc2ncccc2c1)c1ccc(Cl)cc1` the value was 151 to 152 °C; for `C[C@@H](NC(=O)c1csc(-c2ccc(Cl)cc2)n1)[C@](O)(Cn1cncn1)c1ccc(F)cc1F`, 201 to 204 °C; for `CCCC12CCC3C4CCCC=C4CCC3C1CCC2O` (stereo not given), 115 to 119 °C.
With `O=C1C(CCC(O)c2ccc(F)cc2)C(c2ccc(-c3ccccc3O)cc2)N1c1ccc(F)cc1` (stereo not given), the melting point was 101 °C.
In turn, `ON(Cn1nnc2ccccc21)Cn1nnc2ccccc21` returned a melting point of 173 to 174 °C.
The compound `CNC(=O)N(C)C1c2ccccc2Oc2ccccc21` yielded a melting point of 173 to 174 °C.
In turn, `c1cc2ccc3nnsc3c2cn1` came in with a melting point of 150 to 153 °C.
In the case of `COc1cc2cc(C(=O)N3CC(CCl)c4c3cc(N)c3ncccc43)[nH]c2c(OC)c1OC` (stereo not given), the melting point was in the range of 225 to 227 °C.
Turning to `CC(=O)NC[C@@H]1C[C@H]1c1c(F)ccc2nn(C)cc12` (relative stereo), the melting point was determined as 120 °C.
With `COC(=O)c1sc(C)c(Br)c1SC(=O)N(C)C` the figure was 175 to 176 °C.
For `Oc1cc(Br)c(-c2c3ccccc3c(Br)c3sc4ccccc4c23)cc1O` the value was 138 to 140 °C.
In turn, `Cc1ccc(-c2[nH]c3ccc(Cl)cc3c2-c2ccc(S(C)(=O)=O)cc2)cc1` came in with a melting point of 238 to 240 °C.
In the case of `COc1cccc(N(C)C(=O)c2cnc(Br)s2)c1`, the melting point was 106 °C.
`COc1ccc(-c2[nH]nc3c2C(=O)c2c(NC(=O)CN4CCC(N(C)C)CC4)cccc2-3)cc1` gave a melting point greater than 300 °C.
With `CC(=O)O[C@H]1C=C(Br)[C@H](O)[C@@H](Br)[C@@H]1O` the figure was 150 to 152 °C; with `c1c(NC23CC4CC(CC(C4)C2)C3)nc(N2CCNCC2)nc1NC12CC3CC(CC(C3)C1)C2`, 210 to 220 °C; with `CCOC(=O)c1cc2ccccc2n1S(=O)(=O)c1ccc(C)cc1`, 92 to 95 °C.
With `COC(=O)C(C)(C)S(=O)(=O)N1CCC(c2ccc(-c3nccs3)c(C)c2)CC1`, the melting point lay within 111 to 114 °C.
Consider `O=[N+]([O-])c1oc2ccc(CN3CCCC3)cc2c1-c1ccccc1`, for which the melting point lay in the range of 111 to 112 °C.
`CC(C)(C)CCCOC1CCC2C3CC=C4CC(O[Si](C)(C)C(C)(C)C)CCC4(C)C3CCC12C` (stereo not given) displayed a melting point of 138 to 139 °C.
For `CCC(=NNc1ccc(C2=NNC(=O)CC2)cc1)c1ccncc1` the value was 235 to 237 °C; for `ClC(=NNc1c(Cl)cc(Cl)cc1Cl)c1ccc(Cl)cc1`, 123 to 124 °C; for `Cc1ccsc1C(Cc1ccccc1N)N(C)C(=O)C(C)C` (stereo not given), 137 to 141 °C.
With `CC(Oc1ncc(F)c(N)n1)c1ccc(F)cc1` (stereo not given) the figure was 96 to 98 °C.
Take `COCCO[C@@H]1c2ccn3c(Cl)c(C)nc3c2N[C@H](c2ccccc2)[C@H]1O`: the melting point was 123 to 126 °C.
`CC(=O)c1ccc(-c2coc3ccc(-c4nnc(C)o4)cc23)cc1` gave a melting point of 197 to 198 °C.
Turning to `CN(c1ccc(Cl)c2cc(C(N)=O)[nH]c12)S(=O)(=O)c1cccs1`, the melting point lay in the range of 252 to 254 °C.
For `O=C(O)c1ccc2nc3ccccn3c(=O)c2c1` the value was greater than 310 °C; for `CCc1cc(CC(=O)O)ccc1OCc1ccc2ccccc2n1`, 144 °C; for `CCS(=O)(=O)OC(c1cccc(C(O)(C(F)(F)F)C(F)(F)F)c1)(C(F)(F)F)C(F)(F)F`, 64 °C.
For `Cc1nccn1Cc1ccccc1` the value was 51 to 53 °C; for `OC1(c2ccc(Cl)cc2)CCCNC12CCCCC2` (stereo not given), 158 to 164 °C.
`COc1cc(Cl)c(C=O)c(Cl)c1`: the melting point was 107 to 109 °C.
Compound `Cc1ccc([N+](=O)[O-])c(C(=O)Nc2nnn[nH]2)c1` showed a melting point of 278 to 279 °C.
In the case of `CCCCCOc1ccc(-c2cnc(C#N)nc2)cc1`, the melting point came out at 100 °C.
With `CC(=O)OC1CCC2(C)C(=CCC3C2CCC2(C=CCl)C(OC(C)=O)CCC32)C1` (stereo not given), the melting point lay in the range of 155 to 156 °C.
Regarding `FC(F)(F)c1cccc(C(Cl)(Cl)Cl)c1Cl`, the melting point is 32 to 33 °C.
With `COc1cc(C(=O)NS(=O)(=O)c2ccccc2)ccc1Cn1nc(OC)c2ccc(NC(=O)OC3CCCC3)cc21` the figure was 246 to 248 °C; with `CC(=O)N1CCN(c2ccc(NS(C)(=O)=O)cc2)CC1`, 165 to 167 °C; with `CN1C(=O)C(C(=O)Nc2ccccc2)Sc2ccccc21` (stereo not given), 124 to 126 °C.
Consider `COc1ccc(/C=C/c2ccc3c(=O)n(-c4ccccc4)ncc3c2)cc1`, for which the melting point fell in the range of 198 to 199 °C.
With `CCOc1csc(C)c1C1OC(=O)NC1=O` (stereo not given), the melting point lay in the range of 136 to 138 °C.
For `CN(C)C=CC(=O)c1ccccc1` the value was 88 to 91 °C; for `CC1(C)c2ccccc2C(C)(C)N1Cc1ccccc1`, 61 to 61.4 °C; for `N#Cc1cccnc1NCc1nc2ccc(F)cc2c(=O)n1-c1ccccc1Cl`, 145 to 150 °C.
As to `Cc1sc(Nc2cccc(C#N)n2)nc1-c1cn[nH]c1`, the melting point was 331 °C.
For the compound `Cc1c(CCC(=O)O)ccc2c3ccccc3n(Cc3ccccc3)c12`, the melting point was 160 to 162 °C.
`COCC(=O)OC(=C1C(=O)N(C(N)=O)c2cc(Cl)c(F)cc21)c1cccs1` registered a melting point of 199 to 200 °C.
For `CCN1CC(NC(=O)c2ccc(N)cc2)CN1CC` the value was 119 to 121 °C.
As to `COC(=S)c1ccncc1Cc1ccc(OC)cc1`, the melting point lay within 99 to 100 °C.
The compound `O=C(O)COc1cccc(CCc2cc(-c3ccccc3)n(-c3ccccc3)n2)c1` displayed a melting point of 125 to 127 °C.
With `Nc1nc(N)c2ncn(COCCOC(=O)c3ccccc3)c2n1` the figure was 205 °C.

A word on the melting point: it is the temperature of the solid-liquid transition.
